Assays:
wildtype (N2) worms = test: Pharyngeal pumping rate; type: in vivo, Caenorhabditis elegans; details: 50 μM ThT
Procedure: FIG. 11A-B. ThT produces small changes in pharyngeal pumping in N2 worms and increases lifespan on a dietary restriction model. a) Pharyngeal pumping rates of wildtype animals raised on 50 μM ThT measured at 3 (left panel) and 6 days of treatment (right panel). Pumping rates of 15 individuals were scored and the averages of three independent experiments are shown (*p<0.01). b) 1 and 10 μM ThT increase lifespan of N2 worms raised on 1×10^9 cfu/ml at 20° C. as compared to untreated worms (left panel). Percent gain in median survival of N2 populations cultured on 0-50 μM ThT (right panel). Bars are representative of 2 to 4 independent experiments per duplicate.

CW152 gas-1(fc21) X = test: Ethanol sensitivity of gas-1 ts mutant; type: in vivo, Caenorhabditis elegans; details: 0.4 M EtOH, after 3 days of treatment
Procedure: (§1) Scoring for paralysis was initiated 2 and 8 days after temperature upshift for CL4176 and AM140, respectively. […] For sensitivity to EtOH or levamisole resistance, CW152 gas-1 (fc21) X and ZZ26 unc-63(x26)I worms were picked into 0.4 M EtOH or 50 μM levamisole, respectively, equilibrated for 5 min, and scored for paralysis as described above. Treated and untreated worms were compared with an unpaired t-test (implemented in Prism 4, Graphpad™ Software, Inc., San Diego, Calif., USA).

[1] = target: Aβ3-42 aggregates in CL4176 (Homo sapiens, UniProt P05067); test: Aβ aggregation in vivo by immunohistochemistry; set-up: species or system Caenorhabditis elegans; details: CL4176, 50 μM ThT
Procedure: For immunofluorescence, N2, unc-He250 52(e669su250), CB1157 unc-54(e1157) or CL4176 dvIs27 [myo-3::Aβ(3 to 42)-let 3′UTR(pAF29); pRF4 (rol-6(su1006))] worms were treated for 24-36 h with or without 50 μM ThT at 25° C. After this period the worms were collected, rinsed, and fixed in 4% paraformaldehyde overnight. After fixation, worms were rinsed twice with 1 ml of 10 mM Tris-HCl pH 7.5 and then permeabilized by 24 h exposure to β-mercaptoethanol at 37° C. followed by collagenase treatment (2 mg/ml for 1-1.5 at 37° C.) to allow for digestion of the cuticle. Paramyosin and perlecans were detected with primary monoclonal antibodies 5-23 and MH3 (developed by Henry Epstein and Robert H. Waterston and obtained from the Developmental Studies Hybridoma Bank developed under the auspices of the NICHD and maintained by The University of Iowa, Department of Biology, Iowa City, Iowa 52242) and AlexaFluor 633 goat anti-mouse (Molecular Probes) as secondary antibody. Soluble oligomers and Aβ peptide were detected with anti polyclonal All (Invitrogen) and 6E10 monoclonal (Covance) primary antibodies, respectively, with AlexaFluor 568 goat anti-rabbit and AlexaFluor 488 goat anti-mouse (Molecular Probes) as secondary antibodies. Images were processed and quantified by using Image Analyst MK II (Novato, Calif.).

[2] = tested on: SKN-1 fusion protein [CF2189 (skn-1::GFP)]; test: SKN-1::GFP localization; type: in vivo, Caenorhabditis elegans; details: ThT treatment
Procedure: For fluorescent microscopy, TJ356 zIs356 IV [daf-16::daf-16-gfp+rol-6] or CF2189 Is001(skn-1::gfp+rol-6) were paralyzed with 1 mM levamisole mounted on 1% agarose pads and imaged using Olympus BX51 (60× objective) and HCImage software (Hamamatsu). For immunofluorescence, N2, […], CB1157 unc-54(e1157) or CL4176 dvIs27 [myo-3::Aβ(3 to 42)-let 3′UTR(pAF29); pRF4 (rol-6(su1006))] worms were treated for 24-36 h with or without 50 μM ThT at 25° C. After this period the worms were collected, rinsed, and fixed in 4% paraformaldehyde overnight. […] Paramyosin and perlecans were detected with primary monoclonal antibodies 5-23 and MH3 (developed by Henry Epstein and Robert H. Waterston and obtained from the Developmental Studies Hybridoma Bank developed under the auspices of the NICHD and maintained by The University of Iowa, Department of Biology, Iowa City, Iowa 52242) and AlexaFluor 633 goat anti-mouse (Molecular Probes) as secondary antibody. Soluble oligomers and Aβ peptide were detected with anti polyclonal All (Invitrogen) and 6E10 monoclonal (Covance) primary antibodies, respectively, with AlexaFluor 568 goat anti-rabbit and AlexaFluor 488 goat anti-mouse (Molecular Probes) as secondary antibodies. Images were processed and quantified by using Image Analyst MK II (Novato, Calif.).

CF1038 [daf-16(mu86)I] = test: Lifespan assay, daf-16 mutant; type: in vivo, Caenorhabditis elegans; details: 50 μM ThT, 100 μM curcumin
Procedure: Lifespan assays were performed as described previously. (McColl, G. et al. Pharmacogenetic analysis of lithium-induced delayed aging in Caenorhabditis elegans. J Biol Chem 283, 350-357 (2008). Briefly, the nematode growth media (NGM) plates were prepared under sterile conditions. 100 μL of concentrated stocks of each of the compounds used in this study were added onto a previously prepared NGM small plate (3 mL volume) immediately spread over the surface of the plate. The final concentrations quoted in the text assume an even distribution of compound throughout the 3 ml plate. The plates were then placed in a laminar flow hood at room temperature for 30 min and then 60 μL of a concentrated suspension of E. coli OP50 was spotted to form a circular lawn on the center of each plate. Thirty late L4 larvae growing at 20° C. were transferred to fresh NGM plates with FUdR (75 μM) in presence or absence of the specified compounds and incubated at 20° C. The first day of adulthood is Day 3 in survival curves. There was between-experiment variation in the magnitude of the lifespan extension observed with ThT which appeared to correlate with different suppliers and batches. ThT concentration should be optimized depending on batch and purity and stability of the compound. […]
Animals were scored as alive, dead or lost every other day. […]

[3] = tested on: AM140 (rmIs132[P(unc-54) Q35::YFP]); test: Worm paralysis assay, polyQ model; type: in vivo, Caenorhabditis elegans; details: AM140, 25° C., 8 days; 50 μM ThT, 100 μM curcumin
Procedure: as §1

Chain of Aβ3-42 aggregates in CL4176 (P05067 674-713): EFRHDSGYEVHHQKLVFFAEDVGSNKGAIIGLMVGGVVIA

Cc1ccc2c(c1)sc(-c1ccc(N(C)C)cc1)[n+]2C.[Cl-] [ThT, 4-(3,6-dimethyl-1,3-benzothiazol-3-ium-2-yl)-N,N-dimethylaniline chloride]
decrease in pharyngeal pumping rate (wildtype (N2) worms; after 3 days of treatment): ~15% | pharyngeal pumping rate (wildtype (N2) worms; after 6 days of treatment): No difference was detected | ethanol sensitivity (CW152 gas-1(fc21) X): decreases the ethanol sensitivity | Aβ aggregate formation and muscle integrity [1]: reduced aggregate formation and preserved the muscle integrity | SKN-1::GFP nuclear accumulation [2]: no nuclear accumulation | lifespan of daf-16(mu86) mutant (CF1038 [daf-16(mu86)I]): extended the lifespan | proportion of paralyzed worms [3]: significantly decrease the proportion of paralyzed worms
